Experimental data as given in EP0564356A1, “4-phenylaminomethylimidazole derivatives, process for their preparation, angiotensin II receptor antagonists and their application in therapy” (FOURNIER INDUSTRIE ET SANTE, priority 1992, dated 1993).

Target: T1, récepteur vasculaire de l'angiotensine II (Oryctolagus cuniculus, UniProt P34976)
T1 construct: réponse contractile induite par l'angiotensine II dans des anneaux isolés d'aorte de lapin; from tissue; host or cells: isolated rabbit aortic rings
T1 sequence (P34976 1-359): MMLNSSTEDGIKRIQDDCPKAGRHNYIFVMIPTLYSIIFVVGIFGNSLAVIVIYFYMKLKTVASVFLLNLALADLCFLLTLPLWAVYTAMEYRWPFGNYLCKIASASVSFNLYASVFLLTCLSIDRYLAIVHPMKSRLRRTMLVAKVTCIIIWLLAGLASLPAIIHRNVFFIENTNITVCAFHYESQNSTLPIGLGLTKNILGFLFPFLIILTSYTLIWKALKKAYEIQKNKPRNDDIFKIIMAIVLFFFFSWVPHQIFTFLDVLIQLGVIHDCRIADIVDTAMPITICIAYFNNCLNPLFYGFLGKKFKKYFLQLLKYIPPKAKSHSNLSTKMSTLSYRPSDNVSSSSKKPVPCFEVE
Test: Antagonism of the angiotensin II-induced contractile response in isolated rabbit aortic rings
Design: species or system lapin
Conditions: contraction by angiotensine II 3.10⁻⁹ M, test product preincubated 15 minutes, 37°C
Protocol: L'activité des composés selon l'invention comme antagonistes du récepteur vasculaire de l'angiotensine II a été évaluée par leur efficacité à antagoniser la réponse contractile induite par l'angiotensine II dans des anneaux isolés d'aorte de lapin. Les anneaux sont suspendus dans un bain de Krebs-Henseleit maintenu à 37°C et aéré par un mélange O₂/CO₂ (95/5 , v/v) puis étirés à une tension de repos de 2 g. Après une heure de repos, on provoque une contraction par l'angiotensine II (3.10⁻⁹ M) en présence du produit à tester préincubé pendant 15 minutes. La concentration (exprimée en nanomole) de produit à tester produisant une inhibition de 50 % de la réponse contractile (IC₅₀) est calculée à partir de la courbe concentration-réponse . Les résultats obtenus avec un certain nombre de composés selon l'invention sont regroupés dans le tableau VIII.

IC50 [nM] | Compound
7 | CCCc1ncc(CNc2ccccc2C(=O)O)n1Cc1ccc(C(=O)O)cc1 [compound 36]
1.5 | CCCCc1ncc(CNc2ccccc2C(=O)O)n1Cc1ccc(C(=O)NS(=O)(=O)c2ccccc2C)cc1 [compound 67]
35 | CCCCc1ncc(CNc2ccccc2C(=O)OCC(=O)N(CCC)CCC)n1Cc1ccc(C(=O)O)cc1 [compound 134]
10 | CCCCc1ncc(CNc2ccccc2C(=O)OCC(=O)OCC)n1Cc1ccc(C(=O)O)cc1 [compound 141]
12 | CCCCCC(=O)OCOC(=O)c1ccccc1NCc1cnc(CCCC)n1Cc1ccc(C(=O)O)cc1 [compound 148]
5 | CCCCc1ncc(CNc2ccccc2C(=O)OCOC(=O)CCC)n1Cc1ccc(C(=O)O)cc1 [compound 149]
8.7 | CCCCc1ncc(CNc2ccccc2C(=O)OCC(=O)CC)n1Cc1ccc(C(=O)O)cc1 [compound 155]
82 | CCCCc1ncc(CNc2ccccc2C(=O)OCCc2ccccc2)n1Cc1ccc(C(=O)O)cc1 [compound 156]
54 | CCCCc1ncc(CNc2ccccc2C(=O)Oc2ccccc2)n1Cc1ccc(C(=O)O)cc1 [compound 157]
75 | CCCCc1ncc(CNc2ccccc2C(=O)OCCOC)n1Cc1ccc(C(=O)O)cc1 [compound 158]
64 | CCCCc1ncc(CNc2ccccc2C(=O)OCCC(C)C)n1Cc1ccc(C(=O)O)cc1 [compound 161]
50 | CCCCc1ncc(CNc2ccccc2C(=O)OCC2CC2)n1Cc1ccc(C(=O)O)cc1 [compound 163]
40 | CCCCc1ncc(CNc2ccccc2C(=O)OCC(C)C)n1Cc1ccc(C(=O)O)cc1 [compound 164]
15 | CCCCOC(=O)c1ccccc1NCc1cnc(CCCC)n1Cc1ccc(C(=O)O)cc1 [compound 166]
80 | CCCCCOC(=O)c1ccccc1NCc1cnc(CCCC)n1Cc1ccc(C(=O)O)cc1 [compound 170]
80 | CCCCc1ncc(CNc2ccccc2C(=O)O)n1Cc1ccc(C(=O)OCC)cc1 [compound 174]
67 | CCCCc1ncc(CNc2ccccc2C(=O)O)n1Cc1ccc(C(=O)OCC2CC2)cc1 [compound 178]
7 | CCCCc1ncc(CNc2ccccc2C(=O)OCOC(=O)CCC)n1Cc1ccc(C(=O)NS(=O)(=O)c2ccccc2C)cc1 [compound 187]
10 | CCCCc1ncc(CNc2ccccc2C(=O)O)n1Cc1ccc(C(=O)NS(=O)(=O)c2cccc(Cl)c2)cc1 [compound 201]
14.7 | CCCCc1ncc(CNc2ccccc2C(=O)O)n1Cc1ccc(C(=O)NS(=O)(=O)c2ccc(Cl)cc2)cc1 [compound 202]
4.4 | CCCCc1ncc(CNc2ccccc2C(=O)O)n1Cc1ccc(C(=O)NS(=O)(=O)c2ccccc2)cc1 [compound 203]
5.5 | CCCCc1ncc(CNc2ccccc2C(=O)O)n1Cc1ccc(C(=O)NS(C)(=O)=O)cc1 [compound 205]
70 | CCCCc1ncc(CNc2ccccc2C(N)=O)n1Cc1ccc(C(=O)O)cc1 [compound 209]
84 | CCCCNC(=O)c1ccccc1NCc1cnc(CCCC)n1Cc1ccc(C(=O)O)cc1 [compound 210]
0.8 | CCCCc1ncc(CNc2ccccc2C(=O)O)n1Cc1ccc(C(=O)NS(=O)(=O)c2ccccc2Cl)cc1 [compound 211]
2 | CCCCc1ncc(CNc2ccccc2C(=O)O)n1Cc1ccc(C(=O)NS(=O)(=O)c2ccccc2N=[N+]=[N-])cc1 [compound 228]
100 | CCCCc1ncc(CNc2ccccc2C(=O)OCC2COC(C)(C)O2)n1Cc1ccc(C(=O)O)cc1 (centres unmarked) [exemple 26, acide 2-[[[2-butyl-1-[(4-carboxyphényl)méthyl]-1H-imidazol-5-yl]méthyl]amino]-benzoïque, 2,2-diméthyl-1,3-dioxolane-4-yl-méthyl ester]
80 | CCCCc1ncc(CNc2ccccc2C(=O)OCC(O)CO)n1Cc1ccc(C(=O)O)cc1 (centres unmarked) [exemple 28, acide 2-[[[2-butyl-1-[(4-carboxyphényl)méthyl]-1H-imidazol-5-yl]méthyl]amino]-benzoïque, 2,3-dihydroxy-propyl ester]
3.6 | CCCCc1ncc(CNc2ccccc2C(=O)O)n1Cc1ccc(C(=O)O)cc1 [exemple 32, acide 2-[[[2-butyl-1-[(4-carboxyphényl)méthyl]-1H-imidazol-5-yl]méthyl]amino]-benzoïque]

More lines, now with the values behind:

Compound | IC50 [nM]
CCCCc1ncc(Cn2c(C(=O)O)cc3ccccc32)n1Cc1ccc(C(=O)O)cc1 [compound 33] | 7.1
CCCCc1nc(Cl)c(Cn2c(C(=O)O)cc3ccccc32)n1Cc1ccc(C(=O)O)cc1 [compound 34] | 8.4
CCCCc1ncc(CNc2cc([N+](=O)[O-])ccc2C(=O)O)n1Cc1ccc(C(=O)O)cc1 [compound 35] | 1.2
CCCCc1nc(Cl)c(CNc2c(Cl)cc(Cl)cc2C(=O)O)n1Cc1ccc(C(=O)O)cc1 [compound 39] | 106
CCCCc1nc(Cl)c(CNc2c(C(=O)O)cc(OC)c(OC)c2OC)n1Cc1ccc(C(=O)O)cc1 [compound 40] | 57.6
CCCCc1nc(Cl)c(CNc2ccccc2C(=O)O)n1Cc1ccc(C(=O)O)cc1Cl [compound 41] | 5.1
CCCc1nc(Cl)c(CNc2ccccc2C(=O)O)n1Cc1ccc(C(=O)O)cc1 [compound 42] | 5.1
CCCCc1nc(C(F)(F)F)c(CNc2ccccc2C(=O)O)n1Cc1ccc(C(=O)O)cc1 [compound 43] | 6.3
CCCCc1nc(I)c(CNc2ccccc2C(=O)O)n1Cc1ccc(C(=O)O)cc1 [compound 44] | 5.3
CCCCc1nc(Cl)c(CNc2ccc(C)cc2C(=O)O)n1Cc1ccc(C(=O)O)cc1 [compound 45] | 6.7
CCCCc1nc(Cl)c(CNc2cc([N+](=O)[O-])ccc2C(=O)O)n1Cc1ccc(C(=O)O)cc1 [compound 46] | 10.5
CCCCc1nc(Cl)c(CNc2cc3ccccc3cc2C(=O)O)n1Cc1ccc(C(=O)O)cc1 [compound 47] | 71.3
CCCCc1nc(Cl)c(CNc2cc(Cl)ccc2C(=O)O)n1Cc1ccc(C(=O)O)cc1 [compound 48] | 5.3
CCCCc1nc(Cl)c(CNc2ccc(Cl)cc2C(=O)O)n1Cc1ccc(C(=O)O)cc1 [compound 49] | 13.2
CCCCc1nc(Cl)c(CNc2ccccc2C(=O)O)n1Cc1ccc(C(=O)O)cc1 [compound 50] | 5.7
CCCCc1nc(Cl)c(CNc2ccccc2C(=O)O)n1Cc1ccc(-c2nnn[nH]2)cc1 [compound 51] | 10.8
CCCCc1nc(Cl)c(CNc2ccccc2-c2nnn[nH]2)n1Cc1ccc(C(=O)O)cc1 [compound 52] | 40.2
CCCCc1nc(Cl)c(CN(C(C)=O)c2ccccc2C(=O)O)n1Cc1ccc(C(=O)O)cc1 [compound 55] | 69.1
CCCCc1nc(Cl)c(CNc2ccccc2C(=O)O)n1Cc1ccc(C(=O)NS(=O)(=O)c2ccccc2C)cc1 [compound 66] | 8.8
CCCCc1ncc(CNc2ccccc2C(=O)OCC(=O)N(CC)CC)n1Cc1ccc(C(=O)OC)cc1 [compound 76] | 90
CCCCc1ncc(CNc2ccccc2C(=O)OC(C)OC(=O)C2CCCCC2)n1Cc1ccc(C(=O)O)cc1 (centres unmarked) [compound 145] | 40
CCCCc1ncc(CNc2ccccc2C(=O)OCC(=O)N(CCC)CCC)n1Cc1ccc(C(=O)OCC(=O)N(CCC)CCC)cc1 [compound 181] | 80
CCCCc1nc(SC)c(CNc2ccccc2C(=O)O)n1Cc1ccc(C(=O)O)cc1 [compound 198] | 4.6
CCCCc1ncc(CNc2ccccc2C(=O)O)n1Cc1ccc(C(=O)NS(=O)(=O)c2ccc(OC)cc2)cc1 [compound 204] | 9.5
CCCc1ncc(CNc2cc([N+](=O)[O-])ccc2C(=O)O)n1Cc1ccc(C(=O)O)cc1 [compound 212] | 46
CCCCc1ncc(CNc2cc(N=[N+]=[N-])ccc2C(=O)O)n1Cc1ccc(C(=O)O)cc1 [compound 226] | 6
CCCCc1ncc(CNc2ccccc2C(=O)OCC(=O)N(CC)CC)n1Cc1ccc(C(=O)OCC(=O)N(CC)CC)cc1 [exemple 68, acide 2-[[[2-butyl-1-[(4-((((diéthylamino)carbonyl)méthoxy)carbonyl)phényl)méthyl]-1H-imidazol-5-yl]méthyl]amino]-benzoïque, ((diéthylamino)carbonyl)méthyl ester] | 30
